Experimental data published in patent publication US7320863B2 (Albert Einstein College of Medicine of Yeshiva University, priority 1996, dated 2008).

Legend:
[1] = target: T1, rat sodium/iodide symporter (Rattus norvegicus, UniProt Q63008)
T1 sequence (Q63008 1-618): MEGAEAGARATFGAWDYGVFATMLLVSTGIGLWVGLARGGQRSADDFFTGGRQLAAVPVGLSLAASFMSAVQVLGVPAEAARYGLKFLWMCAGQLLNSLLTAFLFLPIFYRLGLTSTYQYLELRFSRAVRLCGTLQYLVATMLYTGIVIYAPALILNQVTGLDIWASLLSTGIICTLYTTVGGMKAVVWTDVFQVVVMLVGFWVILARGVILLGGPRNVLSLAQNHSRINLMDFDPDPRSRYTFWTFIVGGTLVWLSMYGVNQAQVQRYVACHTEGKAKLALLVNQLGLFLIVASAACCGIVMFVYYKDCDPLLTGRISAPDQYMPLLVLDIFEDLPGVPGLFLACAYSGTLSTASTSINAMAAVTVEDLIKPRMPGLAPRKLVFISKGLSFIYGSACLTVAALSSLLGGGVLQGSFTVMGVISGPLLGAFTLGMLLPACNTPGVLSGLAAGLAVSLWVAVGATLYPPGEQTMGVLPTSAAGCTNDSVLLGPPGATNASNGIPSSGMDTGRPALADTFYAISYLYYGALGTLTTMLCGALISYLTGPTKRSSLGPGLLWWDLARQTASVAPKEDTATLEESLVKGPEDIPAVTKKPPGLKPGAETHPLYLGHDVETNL
Method: Transcripts were injected into oocytes and oocytes were assayed for perchlorate-sensitive Na^+/I^− symport activity as described in Weiss, et al., supra.
Control assays were carried out in oocytes microinjected with water (lane-1). Na^+-dependence was ascertained by using choline in place of Na^+, and perchlorate sensitivity was tested by conducting assays in the presence of both Na+ and perchlorate.

[2] = target: T1, rat sodium/iodide symporter; assay: Iodide accumulation in COS cells transfected with sodium/iodide symporter cDNA; assay type: cell-based; parameters: Beginning with Met at position 1, a long open reading frame codes for a protein of 618 amino acids; expressed in transfected cells; host or cells: Xenopus laevis oocytes microinjected with cRNA transcribed in vitro (T7 RNA polymerase) from the cDNA clone in pSPORT; settings: COS cells transfected with symporter cDNA clone, assayed 48 h after transfection
Method: In FIG. 1A oocytes were microinjected with water (lane 1), 50 ng mRNA from FRTL-5 cells (lane 2), or approximately 20 ng cRNA transcripts made in vitro from pools containing the indicated number of cDNA clones (lanes 3-7, numbers without parentheses at bottom of FIG. 1A). […] Inset: Double reciprocal plot. […] Each point represents the average of triplicate determinations+/−SE.
A directional cDNA library was prepared in the PSPORT (BRL) vector from poly A^+ RNA isolated from FRTL-5 cells. cRNAs were synthesized in vitro using T7 RNA polymerase in the presence of m^7 GpppG from pools of cDNA clones. Transcripts were injected into oocytes and oocytes were assayed for perchlorate-sensitive Na^+/I^− symport activity as described in Weiss, et al., supra.

generated iodide concentration gradient ([1]; 50 μM iodide in transport solution, functional volume 0.5 μl/oocyte)	Structure (SMILES)	Na+/I- symport activity in the presence of perchlorate ([1]; assayed in the presence of both Na+ and perchlorate, 45 min)	perchlorate sensitivity of Na+/I- symport activity [2]
> 30 fold	I [iodide]		
	[O-][Cl+3]([O-])([O-])O [perchlorate]	virtually indistinguishable from background	perchlorate-sensitive
